Reference: patent publication US7001983B1, “Antipathogenic synthetic peptides and compositions comprising them” (priority 1997, dated 2006)
Square brackets hold non-standard residues; d marks the D form. Peptide text beside a SMILES is read from it.

Tests used:
Type in all cases: cell-based
[1] = test system: human red blood cells (hRBC); experiment: Hemolysis of human red blood cells; settings: hRBC, 30 min at 37° C.
Procedure: (ix) Hemolysis of human red blood cells. The peptides were tested for their hemolytic activities against human red blood cells (hRBC). Fresh hRBC with EDTA were rinsed 3 times with PBS (35 mM phosphate buffer/0.15 M NaCl, pH 7.3) by centrifugation for 10 min at 800 g and resuspended in PBS. Peptides dissolved in PBS were then added to 50 μL of a solution of the stock hRBC in PBS to reach a final volume of 100 μL (final erythrocyte concentration, 5% v/v). The resulting suspension was incubated under agitation for 30 min at 37° C. The samples were then centrifuged at 800 g for 10 min. Release of hemoglobin was monitored by measuring the absorbance of the supernatant at 540 nm. Controls for zero hemolysis (blank) and 100% hemolysis consisted of hRBC suspended in PBS and Triton 1%, respectively.

[2] = test system: Acinetobacter calcoaceticus Ac11; settings: 100% inhibition of growth after 18–20 h
Escherichia coli D21 = settings: 100% inhibition of growth after 18–20 h
Bacillus megaterium Bm11 = settings: 100% inhibition of growth after 18–20 h

SMILES | % hemolysis at 50 μM peptide [1] [%] | Minimal Inhibitory Concentration A. calcoaceticus (Ac11) [2] [µM] | Minimal Inhibitory Concentration E. coli (D21) (Escherichia coli D21) [µM] | Minimal Inhibitory Concentration B. megaterium (Bm11) (Bacillus megaterium Bm11) [µM] | % hemolysis at 100 μM [1] [%]
CC[C@H](C)[C@H](NC(=O)[C@H](CCCCN)NC(=O)[C@H]1CCCN1C(=O)[C@@H](NC(=O)[C@H](CC(C)C)NC(=O)[C@H](C)NC(=O)[C@H](Cc1ccccc1)NC(=O)[C@H](Cc1ccccc1)NC(=O)CN)[C@@H](C)CC)C(=O)N[C@H](C(=O)N[C@@H](CO)C(=O)N[C@@H](CO)C(=O)N1CCC[C@H]1C(=O)N[C@@H](CC(C)C)C(=O)N[C@@H](Cc1ccccc1)C(=O)N[C@@H](CCCCN)C(=O)N[C@H](C(=O)N[C@H](CC(C)C)C(=O)N[C@H](CC(C)C)C(=O)N[C@@H](CO)C(=O)N[C@@H](C)C(=O)N[C@H](C(=O)NCCN)C(C)C)[C@@H](C)O)[C@@H](C)CC [Peptide 2, [D]P^7L^18L^19[1-22]-TApar] | 0 | 12.5 | 12.5 | 2.5 | –
CC[C@H](C)[C@H](NC(=O)[C@H](CCCCN)NC(=O)[C@H]1CCCN1C(=O)[C@@H](NC(=O)[C@H](CC(C)C)NC(=O)[C@H](C)NC(=O)[C@H](Cc1ccccc1)NC(=O)[C@H](Cc1ccccc1)NC(=O)CNC(=O)[C@@H](N)CCCCN)[C@@H](C)CC)C(=O)N[C@H](C(=O)N[C@@H](CO)C(=O)N[C@@H](CO)C(=O)N1CCC[C@H]1C(=O)N[C@@H](CC(C)C)C(=O)N[C@@H](Cc1ccccc1)C(=O)N[C@@H](CCCCN)C(=O)N[C@H](C(=O)N[C@H](CC(C)C)C(=O)N[C@H](CC(C)C)C(=O)N[C@@H](CO)C(=O)N[C@@H](C)C(=O)N[C@H](C(=O)NCCN)C(C)C)[C@@H](C)O)[C@@H](C)CC [Peptide 4, K^1[D]P^7L^18L^19[1-22]-TApar] | 0 | 7.5 | 7.5 | 1.5 | –
CC[C@H](C)[C@H](NC(=O)[C@H](CCCCN)NC(=O)[C@@H]1CCCN1C(=O)[C@@H](NC(=O)[C@H](CC(C)C)NC(=O)[C@H](C)NC(=O)[C@H](Cc1ccccc1)NC(=O)[C@H](Cc1ccccc1)NC(=O)CN)[C@@H](C)CC)C(=O)N[C@H](C(=O)N[C@@H](CO)C(=O)N[C@@H](CO)C(=O)N1CCC[C@@H]1C(=O)N[C@@H](CC(C)C)C(=O)N[C@@H](Cc1ccccc1)C(=O)N[C@@H](CCCCN)C(=O)N[C@H](C(=O)N[C@@H](CC(C)C)C(=O)N[C@@H](CC(C)C)C(=O)N[C@@H](CO)C(=O)N[C@@H](C)C(=O)N[C@H](C(=O)NCC(=O)N[C@@H](CO)C(=O)N[C@@H](C)C(=O)N[C@@H](CC(C)C)C(=O)N[C@@H](CO)C(=O)N[C@@H](CO)C(=O)N[C@@H](CO)C(=O)NCC(=O)NCC(=O)N[C@@H](CCC(N)=O)C(=O)N[C@@H](CCC(=O)NCCN)C(=O)NCCN)C(C)C)[C@@H](C)O)[C@@H](C)CC [Peptide 9, [D]P^13-TApar] | 83 | – | 3 | 1.5 | –
CC(C)C[C@H](NC(=O)[C@H](CC(C)C)NC(=O)[C@@H](CC(C)C)NC(=O)[C@H](N)CCCCN)C(=O)N[C@H](CCCCN)C(=O)N[C@H](CC(C)C)C(=O)N[C@H](CCCCN)C(=O)N[C@@H](CC(C)C)C(=O)N[C@H](CCCCN)C(=O)N[C@@H](CC(C)C)C(=O)N[C@H](CC(C)C)C(=O)N[C@H](CCCCN)C(N)=O [Peptide 27, [D]-K^1,5,7,9,12L^2,6,11-K5L7] (H-[dK][dL]LL[dK][dL][dK]L[dK]L[dL][dK]-NH2) | – | – | 7 | 0.2 | 0
CC(C)[C@H](NC(=O)[C@H](CCCCN)NC(=O)[C@H](NC(=O)[C@H](NC(=O)[C@@H](NC(=O)[C@@H](N)CCCCN)C(C)C)C(C)C)C(C)C)C(=O)N[C@H](C(=O)N[C@@H](C(=O)N[C@@H](CCCCN)C(=O)N[C@@H](C(=O)N[C@H](C(=O)N[C@@H](CCCCN)C(N)=O)C(C)C)C(C)C)C(C)C)C(C)C [Peptide 34, [D]-V^3,4,8,10-K4V8] (H-KV[dV][dV]KVV[dV]K[dV]VK-NH2) | – | – | 3.5 | 0.8 | 0
CC[C@H](C)[C@H](NC(=O)[C@H](CCCCN)NC(=O)[C@H]1CCCN1C(=O)[C@@H](NC(=O)[C@H](CC(C)C)NC(=O)[C@H](C)NC(=O)[C@H](Cc1ccccc1)NC(=O)[C@H](Cc1ccccc1)NC(=O)CN)[C@@H](C)CC)C(=O)N[C@H](C(=O)N[C@@H](CO)C(=O)N[C@@H](CO)C(=O)N1CCC[C@H]1C(=O)N[C@@H](CC(C)C)C(=O)N[C@@H](Cc1ccccc1)C(=O)N[C@@H](CCCCN)C(=O)N[C@H](C(=O)N[C@@H](CC(C)C)C(=O)N[C@H](CC(C)C)C(=O)N[C@@H](CO)C(=O)N[C@@H](C)C(=O)N[C@H](C(=O)NCC(=O)N[C@@H](CO)C(=O)N[C@@H](C)C(=O)N[C@@H](CC(C)C)C(=O)N[C@@H](CO)C(=O)N[C@@H](CO)C(=O)N[C@@H](CO)C(=O)NCC(=O)NCC(=O)N[C@@H](CCC(N)=O)C(=O)N[C@@H](CCC(=O)NCCN)C(=O)NCCN)C(C)C)[C@@H](C)O)[C@@H](C)CC [Peptide 11, [D]P^7L^19-TApar] | 82 | – | 3 | 1.5 | –
CC[C@H](C)[C@H](NC(=O)[C@H](CCCCN)NC(=O)[C@H]1CCCN1C(=O)[C@@H](NC(=O)[C@H](CC(C)C)NC(=O)[C@H](C)NC(=O)[C@H](Cc1ccccc1)NC(=O)[C@H](Cc1ccccc1)NC(=O)CNC(=O)[C@H](CCCCN)NC(=O)[C@@H](N)CCCCN)[C@@H](C)CC)C(=O)N[C@H](C(=O)N[C@@H](CO)C(=O)N[C@@H](CO)C(=O)N1CCC[C@H]1C(=O)N[C@@H](CC(C)C)C(=O)N[C@@H](Cc1ccccc1)C(=O)N[C@@H](CCCCN)C(=O)N[C@H](C(=O)N[C@H](CC(C)C)C(=O)N[C@H](CC(C)C)C(=O)N[C@@H](CO)C(=O)N[C@@H](C)C(=O)N[C@H](C(=O)NCCN)C(C)C)[C@@H](C)O)[C@@H](C)CC [Peptide 5, K^1K^2[D]P^7L^18L^19[1-22]-TApar] | 0 | 3.5 | 3.5 | 0.75 | –
